Test results reported in paper PMC4721545 (Bioscience Reports, 2015).
Where two headings read alike, the source gives them in different places.

How the values were obtained:
[1] = molecular target: T1, ROCK I (Homo sapiens, UniProt Q13464); assay: ROCK inhibition by mobility shift assay, ROCK I; format: biochemical; conditions: ATP con. 3.6 μM
T1 construct: purchased Carna
Protocol: (§1) Staurosporine (Sigma) was used as positive control and saline was used as negative control.
(§2) DMSO (100 μl) was added to two empty wells for no compound control and no enzyme control in the same 96-well plate. Mobility shift assay was performed according to the manufacturer's protocol. […] The mixtures (5 μl) were incubated with 2.5× enzyme solution (10 μl) in 384-well plate at room temperature for 10 min and control was performed by adding 5 μl of kinase buffer.
(§3) Percentinhibition=max−conversion/max−min×100
(§4) where max stands for DMSO control; min stands for low control.

[2] = molecular target: T2, ROCK II (Homo sapiens, UniProt O75116); assay: ROCK inhibition by mobility shift assay, ROCK II; format: biochemical; conditions: ATP con. 5.3 μM
T2 construct: purchased Carna
T2 sequence (O75116 whole entry): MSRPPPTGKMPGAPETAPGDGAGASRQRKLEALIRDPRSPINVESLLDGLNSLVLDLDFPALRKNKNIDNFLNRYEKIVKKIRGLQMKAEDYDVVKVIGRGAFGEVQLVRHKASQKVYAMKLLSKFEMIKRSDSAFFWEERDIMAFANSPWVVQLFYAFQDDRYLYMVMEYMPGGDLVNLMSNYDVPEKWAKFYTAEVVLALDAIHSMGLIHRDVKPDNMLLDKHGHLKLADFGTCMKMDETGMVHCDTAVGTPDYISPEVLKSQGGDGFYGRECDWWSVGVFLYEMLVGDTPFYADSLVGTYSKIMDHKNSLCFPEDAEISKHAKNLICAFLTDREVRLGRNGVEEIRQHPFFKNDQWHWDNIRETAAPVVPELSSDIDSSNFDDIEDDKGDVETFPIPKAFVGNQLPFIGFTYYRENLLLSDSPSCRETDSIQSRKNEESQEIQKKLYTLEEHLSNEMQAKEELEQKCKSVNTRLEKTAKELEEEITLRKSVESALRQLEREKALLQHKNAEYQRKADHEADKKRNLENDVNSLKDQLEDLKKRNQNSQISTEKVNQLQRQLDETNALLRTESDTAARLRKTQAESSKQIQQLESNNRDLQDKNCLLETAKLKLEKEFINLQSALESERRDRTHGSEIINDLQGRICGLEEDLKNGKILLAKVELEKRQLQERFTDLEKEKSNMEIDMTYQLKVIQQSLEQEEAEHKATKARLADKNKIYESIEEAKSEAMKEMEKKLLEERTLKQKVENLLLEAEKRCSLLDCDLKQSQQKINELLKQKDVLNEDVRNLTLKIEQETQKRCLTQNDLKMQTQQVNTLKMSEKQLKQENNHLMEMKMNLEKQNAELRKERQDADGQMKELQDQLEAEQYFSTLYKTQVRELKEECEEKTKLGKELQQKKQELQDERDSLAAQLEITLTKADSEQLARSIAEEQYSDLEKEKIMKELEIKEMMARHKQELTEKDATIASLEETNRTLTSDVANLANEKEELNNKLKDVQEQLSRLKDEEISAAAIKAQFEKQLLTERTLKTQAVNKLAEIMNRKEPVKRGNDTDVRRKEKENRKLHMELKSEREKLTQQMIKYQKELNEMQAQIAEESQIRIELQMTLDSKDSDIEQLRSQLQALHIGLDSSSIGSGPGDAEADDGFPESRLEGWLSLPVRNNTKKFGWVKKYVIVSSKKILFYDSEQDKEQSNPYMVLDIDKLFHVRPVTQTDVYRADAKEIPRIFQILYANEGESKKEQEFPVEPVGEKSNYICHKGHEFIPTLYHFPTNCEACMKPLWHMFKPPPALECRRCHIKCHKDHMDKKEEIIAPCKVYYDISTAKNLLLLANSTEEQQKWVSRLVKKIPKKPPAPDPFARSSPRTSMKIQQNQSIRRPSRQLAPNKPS
Protocol: as §1, §2, §3, §4

[3] = system: EAE in C57BL/6 mice; assay: Chronic EAE induced with MOG35-55, clinical score and body weight; format: in vivo, mouse; conditions: 800 μg/200 μl daily i.p., day 3 to 27 p.i.; for mean clinical score: EAE control 1.29±1.08, P<0.001; for maximum clinical score: EAE control 2.78; for body weight loss vs EAE mice: P<0.001
Protocol: Female C57BL/6 mice (8–10 weeks old and 18–20 g of body weight) were purchased from Vital River Laboratory Animal Technology Co. Ltd. All experiments were conducted in accordance with the guidelines of the International Council for Laboratory Animal Science. The study was approved by the Ethics Committee of Shanxi Datong University. […].
Mouse myelin oligodendrocyte glycoprotein peptide 35–55 (MOG35–55, MEVGW […]) was produced in an automatic synthesizer (CL. Bio-Scientific Company). The purity of the peptide was >95% as determined by HPLC. Chronic EAE was induced by subcutaneous immunization on the upper dorsal flanks with 300 μg of MOG35–55 in Freund's complete adjuvant (Sigma) supplemented with 3 mg/ml of M. Tuberculosis H37Ra (BD Difco; […]). Mice were injected intraperitoneally (i.p.) with 500 ng of pertussis toxin (Enzo Life Sciences) on days 0 and 2 post-immunization (p.i.). Animals were weighed and evaluated for clinical score every other day in a blinded fashion by at least two investigators. Clinical score of EAE was graded according to the following criteria: 0: healthy; 1: limp tail; 2: ataxia and/or paresis of hind limbs; 3: paralysis of hind limbs and/or paresis of forelimbs; 4: tetraparalysis; and 5: moribund or death. When the clinical score of EAE reaches 3, we give suitable care including softening of food with water in dish and additional nutrients such as egg, making mice easy to obtain food and nutrition.
Mice were divided into three groups: Fasudil-treated group (n=8), FSD-C10-treated group (n=8) and double-distilled water (ddH2O) EAE control group (n=9). […] Mice were i.p. injected with 800 μg/200 μl/daily from day 3 to day 27 p.i. Mice that received the same volume of ddH2O i.p. served as control.

[4] = system: primary neurons; assay: MTT cell viability assay, primary neurons; format: cell-based, mouse; conditions: 24 h
Protocol: (§5) Embryonic 18-day-mouse cortex (Shanghai SLAC Laboratory Animal Co. Ltd) were dissected under a microscope and then triturated into the suspension in Neurobasal-A-medium (Gibco) supplemented with 2% B27 (Gibco), 100 units/ml penicillin and 100 μg/ml streptomycin (Gibco). The cells were then plated on cover slips coated with poly-D-lysine (0.1 mg/ml; Sigma) at a density of 1×10^6 cells per cm^2 at 37°C in a humidified cell incubator under a 95%/5% (v/v) mixture of air and CO2, with the cell media being replaced every 48 h. After 7 days, neurons were incubated with different conditioned medium.
(§6) Cell viability of BV-2 microglia and primary neurons was detected by MTT assay. In brief, 100 μl of MTT solution (0.5 mg ml^−1, Duchefa) was added to cultured cells and incubated for an additional 4 h at 37°C, until the medium turned purple. Absorbance at 570 nm was measured by a microplate reader after addition of 100 μl DMSO. Each experiment was performed in triplicate and repeated three times with separate cell preparations. Results were expressed as a percentage of the control value at 570 nm.

[5] = system: primary neurons; assay: LDH release cell death assay, primary neurons; format: cell-based; conditions: 24 h
Protocol: as §5
(§7) The death of BV-2 microglia and primary neurons was measured by LDH release in the culture medium. Levels of LDH release in supernatants of cultured cells were measured using the cytotoxicity detection kit (Promega) according to the manufacturer's protocol. Maximum LDH release (A570) was determined following the treatment of cells with lysis buffer and considered as control value (100% LDH release). Data were expressed as a percentage of the control value.

[6] = system: BV-2 microglia; assay: MTT cell viability assay, BV-2 microglia; format: cell-based; conditions: 24 h
Protocol: (§8) The BV-2 immortalized microglial cell line was purchased from ShenKe Biological Technology Co. and cultured in Dulbecco's modified Eagle's medium (DMEM; Gibco), supplemented with 10% FBS (Gibco), 100 units/ml penicillin and 100 μg/ml streptomycin (Gibco) at 37°C in a humidified cell incubator under a 95%/5% (v/v) mixture of air and CO2. Cells were plated on a 96-well plate at a density of 1.0×10^6 /ml (200 μl/well), on a 24-well plate at 1.0×10^6/ml (500 μl/well) and at 0.2×10^6 /ml (500 μl/well) for different experiments.
as §6

[7] = system: BV-2 microglia; assay: LDH release cell death assay and morphology, BV-2 microglia; format: cell-based; conditions: for BV-2 microglia cell death / morphology: 75 μg/ml and 200 μg/ml, 48 h culture; for death of BV-2 microglia (LDH release): 24 h
Protocol: as §8, §7

[8] = system: primary neurons; assay: Neurite outgrowth of primary neurons (MAP-2 staining, Image J); format: cell-based, mouse; conditions: PBS control 4.1 μm; P<0.01
Protocol: as §5
(§9) Fluorescent photomicrographs of neurons with microtubule-associated protein-2 (MAP-2) staining or photomicrographs of BV-2 cells under inverted microscope were captured with a 20× objective and a digital camera of Olympus microscope. Images were acquired from randomly selected fields for each group. The length of the longest neurite outgrown or dendritic formation in the cell body was measured by an investigator blinded to the experimental groups using a public-domain image-processing program (Image J, http://rsb.info.nih.gov/ij). Average lengths of neuronal neurite or dendritic formation were used for quantification.

[9] = system: BV-2 microglia; assay: Dendritic formation of BV-2 microglia (Image J); format: cell-based; conditions: for breakage of dendritic branches on BV-2 microglia: 75 and 200 μg/ml; for dendritic length of BV-2 microglia (mean): PBS control 2.94 μm, P<0.001
Protocol: as §8, §9

[10] = system: BDNF, GDNF, NT-3, Nogo protein in brain; assay: Western blot of neurotrophic factors and Nogo in brain of EAE mice; format: in vivo, mouse; conditions: day 28 p.i., vs control EAE mice; for expression of BDNF protein in brain / expression of GDNF protein in brain / expression of NT-3 protein in brain: P<0.05
Protocol: (§10) Mice were divided into three groups: Fasudil-treated group (n=8), FSD-C10-treated group (n=8) and double-distilled water (ddH2O) EAE control group (n=9). […] Mice were i.p. injected with 800 μg/200 μl/daily from day 3 to day 27 p.i. Mice that received the same volume of ddH2O i.p. served as control. Protein from brains was homogenized on ice with an extraction kit and protein concentration was determined by a Bradford protein assay. Protein extracts (30 μg) were separated by SDS/PAGE and transferred on to a PVDF membrane (Immobilon-P; Millipore Corp.). The membranes were then incubated with anti-GDNF (glial cell line-derived neurotrophic factor; 1:1000, Epitomics), anti-BDNF (brain-derived neurotrophic factor; 1:1000, Promega), anti-NT-3(neurotrophin-3; 1:1000, Epitomics), anti-Nogo(1:1000, Epitomics), anti-iNOS (inducible nitric oxide synthase) (1:1000, Cell Signaling Technology) […], anti-arginase-1 ([…]) (1:1000, BD Bioscience) and anti-β-actin (1:10000, Cell Signaling Technology) for overnight at 4°C. Bands were visualized by horseradish peroxidase (HRP-) conjugated secondary antibodies and ECL kit under ECL system (GE Healthcare Life Sciences).

[11] = system: iNOS and Arg-1 expression in brain; assay: Western blot of iNOS and Arg-1 in brain of EAE mice (M1/M2 polarization); format: in vivo, mouse; conditions: day 28 p.i.
Protocol: as §10

[12] = system: C57BL/6 mice; assay: Test of vasodilation in naive mice; format: in vivo; conditions: healthy mice, 800 μg/mouse i.p., after 30 and 60 min
[13] = system: EAE in C57BL/6 mice; set-up: method as in PMID 24749492; conditions: previous studies; cited from earlier work
[14] = system: mice; format: in vivo; conditions: within 2 h
Protocol: […]. […] Given that FSD-C10 was well tolerant in vivo, further pre-clinical studies are valuable for the treatment of MS.
[…]. […] TEXT PRINTED IN THE PICTURE: (b) Fasudi: Mortality (%): 0% (800 μg /mouse/day); Mortality (%): 33% (1600 μg /mouse/day); Mortality (%): 67% (2000 μg /mouse/day) | (b) FSD-C10: Mortality (%): 0% (800 μg /mouse/day); Mortality (%): 0% (1600 μg /mouse/day); Mortality (%): 0% (2000 μg /mouse/day)

T1 sequence (Q13464 whole entry): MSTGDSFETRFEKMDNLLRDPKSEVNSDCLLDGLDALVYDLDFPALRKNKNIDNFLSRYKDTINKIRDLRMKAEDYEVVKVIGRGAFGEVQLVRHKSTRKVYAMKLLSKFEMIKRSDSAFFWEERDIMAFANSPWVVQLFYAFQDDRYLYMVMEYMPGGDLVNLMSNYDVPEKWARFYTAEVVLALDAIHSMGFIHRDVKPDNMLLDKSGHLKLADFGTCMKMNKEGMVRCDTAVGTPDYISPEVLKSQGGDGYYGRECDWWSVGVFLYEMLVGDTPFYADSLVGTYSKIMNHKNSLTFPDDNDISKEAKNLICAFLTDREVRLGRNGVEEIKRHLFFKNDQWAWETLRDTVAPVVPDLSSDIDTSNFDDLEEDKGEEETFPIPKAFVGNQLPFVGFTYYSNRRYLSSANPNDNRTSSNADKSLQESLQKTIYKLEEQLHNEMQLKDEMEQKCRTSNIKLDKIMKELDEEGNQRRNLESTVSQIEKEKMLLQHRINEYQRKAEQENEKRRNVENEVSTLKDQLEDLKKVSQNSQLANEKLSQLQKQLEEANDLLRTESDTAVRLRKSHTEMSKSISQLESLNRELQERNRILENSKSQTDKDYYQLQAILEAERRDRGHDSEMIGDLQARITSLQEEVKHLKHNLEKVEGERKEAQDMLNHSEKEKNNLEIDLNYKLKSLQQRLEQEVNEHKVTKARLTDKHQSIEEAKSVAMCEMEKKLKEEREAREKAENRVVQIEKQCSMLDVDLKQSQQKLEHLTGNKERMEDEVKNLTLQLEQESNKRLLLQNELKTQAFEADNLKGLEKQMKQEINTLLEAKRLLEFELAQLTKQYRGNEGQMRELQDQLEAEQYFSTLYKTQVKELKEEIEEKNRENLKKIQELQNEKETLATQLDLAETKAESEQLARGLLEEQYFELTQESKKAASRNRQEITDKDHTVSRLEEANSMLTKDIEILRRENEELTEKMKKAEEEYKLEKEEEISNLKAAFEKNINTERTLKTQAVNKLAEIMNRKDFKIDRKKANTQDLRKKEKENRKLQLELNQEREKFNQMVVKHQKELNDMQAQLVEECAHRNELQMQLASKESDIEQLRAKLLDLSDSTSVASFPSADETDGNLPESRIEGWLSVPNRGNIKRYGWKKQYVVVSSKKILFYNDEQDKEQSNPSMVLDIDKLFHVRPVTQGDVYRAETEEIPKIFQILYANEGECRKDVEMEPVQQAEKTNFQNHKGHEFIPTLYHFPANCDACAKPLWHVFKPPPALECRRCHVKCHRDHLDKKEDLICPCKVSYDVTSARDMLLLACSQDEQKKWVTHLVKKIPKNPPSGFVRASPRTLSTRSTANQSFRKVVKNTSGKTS

| Compound | mean clinical score [3] | maximum clinical score [3] | body weight loss vs EAE mice [3] | viability of primary neurons (MTT) ([4]; 75 μg/ml, vs control) | viability of primary neurons (MTT) ([4]; 0.6–15 μg/ml) | death of primary neurons (LDH release) ([5]; 0.6–15 μg/ml) | viability of BV-2 microglia (MTT) ([6]; 75 μg/ml, vs control) | viability of BV-2 microglia (MTT) ([6]; 0.6–15 μg/ml) | BV-2 microglia cell death / morphology [7] | death of BV-2 microglia (LDH release) ([7]; 0.6–15 μg/ml) | neurite length of primary neurons (mean) [8] | breakage of dendritic branches on BV-2 microglia [9] | dendritic length of BV-2 microglia (mean) [9] | expression of Nogo protein in brain [10] | expression of BDNF protein in brain [10] | expression of GDNF protein in brain [10] | expression of NT-3 protein in brain [10] | Arg-1 expression in brain [11] | iNOS expression in brain [11] | vasodilation on the foot of mice [12] | further results |
| --- | --- | --- | --- | --- | --- | --- | --- | --- | --- | --- | --- | --- | --- | --- | --- | --- | --- | --- | --- | --- | --- |
| O=S(=O)(c1cccc2cnccc12)N1CCC[C@H]1CCl [FSD-C10] | 0.28±0.23 | 0.50 | less body weight loss | did not lead to significant decrease | did not influence | did not influence | did not lead to significant decrease | did not influence | good cell morphology | did not influence | 10.5 μm | did not cause significant breakage | 12.5 μm | slightly, although not significantly, declined | significantly enhanced | significantly enhanced | significantly enhanced | elevated | inhibited | relatively weak vasodilator effect | IC50 [1]: 1140 nM; IC50 [2]: 711 nM; death of primary neurons (LDH release) ([5]; 75 μg/ml, vs control): did not lead to significant decrease; death of BV-2 microglia (LDH release) ([7]; 75 μg/ml, vs control): did not lead to significant decrease; BV-2 cell death at higher doses with the extension of time ([7]; ≥200 μg/ml, result not shown): caused cell death; clinical severity of EAE [13]: ameliorated |
| Cl.O=S(=O)(c1cccc2cnccc12)N1CCCNCC1 [Fasudil, hexahydro-1-(5-isoquinolinyl-sulfonyl)-1H-1,4-diazepine monohydrochloride, reference compound] | 0.04±0.07 | 0.19 | less body weight loss | significant decrease | did not influence | did not influence | significant decrease | did not influence | obvious cell death | did not influence | 6.6 μm | caused significant breakage | 12.5 μm | slightly, although not significantly, declined | significantly enhanced | significantly enhanced | significantly enhanced | elevated | inhibited | obvious vasodilation | Mortality (%) ([14]; 800 μg/mouse i.p.): 0%; Mortality (%) ([14]; 1600 μg/mouse i.p.): 33%; Mortality (%) ([14]; 2000 μg/mouse i.p.): 67% |
